pIC50: −log10 of the molar value. Read-outs that look alike come from different tables or passages of the source.
Tests used:
Ishikawa cells = experiment: Ishikawa Cell Alkaline Phosphatase Assay; format: cell-based; settings: Homo sapiens, 48 h
Protocol: Ishikawa Cell Alkaline Phosphatase Assay
Cell Maintenance and Treatment:
Ishikawa cells were maintained in DMEM/F12 (50%:50%) containing phenol red+10% fetal bovine serum and the medium was supplemented with 2 mM Glutamax, 1% Pen/Strap and 1 mM sodium pyruvate. Five days prior to the beginning of each experiment (treatment of cells) the medium was changed to phenol red-free DMEM/F12+10% dextran coated charcoal stripped serum. On the day before treatment, cells were harvested using 0.5% trypsin/EDTA and plated at a density of 5×10^4 cells/well in 96-well tissue culture plates. […] Cells were treat for 48 h prior to assay. […] Sample population for at each dose was n=8.
Alkaline Phosphatase Assay:
At the end of 48 h the media is aspirated and cells are washed three times with phosphate buffered saline (PBS). 50 μL of lysis buffer (0.1 M Tris-HCl, pH 9.8, 0.2% Triton X-100) is added to each well. Plates are placed at -80° C. for a minimum of 15 minutes. Plates are thawed at 37° C. followed by the addition of 150 μL of 0.1 M Tris-HCl, pH 9.8, containing 4 mM para-nitrophenylphosphate (pNPP) to each well (final concentration, 3 mM pNPP).
Absorbance and slope calculations were made using the KineticCalc Application program (Bio-Tek Instruments, Inc., Winooski, Vt.). Results are expressed as the mean±S.D. of the rate of enzyme reaction (slope) averaged over the linear portion of the kinetic reaction curve (optical density readings every 5 minutes for 30 minutes absorbance reading).
A description of these methods is described by Holinka, C.

human estrogen receptor = biological target: T1, human estrogen receptor (Homo sapiens, UniProt P03372); experiment: 2X VIT ERE Transfection Assay (luciferase, CHO cells stably transfected with human estrogen receptor); format: cell-based; settings: 24 h
T1 construct: expressed in transfected cells
Protocol: 2X VIT ERE Transfection Assay
Cell Maintenance and Treatment
Chinese Hamster Ovary cells (CHO) which had been stably transfected with the human estrogen receptor were maintained in DMEM+10% fetal bovine serum (FBS). 48 h prior to treatment the growth medium was replaced with DMEM lacking phenol red+10% dextran coated charcoal stripped FBS (treatment medium). Cells were plated at a density of 5000 cells/well in 96-well plates containing 200 μL of medium/well.
Calcium Phosphate Transfection
Reporter DNA (Fromega plasmid pGL2 containing two tandem copies of the vitellogenin ERE in front of the minimal thymidine kinase promoter driving the luciferase gene) was combined with the β-galactosidase expression plasmid pCH110 (Pharmacia) and carrier DNA (pTZ18U) in the following ratio:
20 μg of DNA/1 mL of transfection solution
The DNA (20 μg) was dissolved in 500 μL of 250 mM sterile CaCl2 and added dropwise to 500 μL of 2X HeBS (0.28 M NaCl, 50 mM HEPES, 1.5 mM Na2 HPO4, pH 7.05) and incubated at room temperature for 20 minutes. 20 μL of this mixture was added to each well of cells and remained on the cells for 16 h. […] Each treatment condition was performed on 8 wells (n=8) which were incubated for 24 h prior to the luciferase assay.
After 24 h exposure to compounds, the media was removed and each well washed with 2X with 125 μL of PBS lacking Mg^++ and Ca^++. […] The luciferan substrate (Promega) was added in 100 μL aliquots to each well automatically by the luminometer and the light produced (relative light units) was read 10 seconds after addition.
To the remaining 5 μL of lysate 45 μL of PBS was added. […] The plates were analyzed on a Molecular Devices specrophotometric plate reader at 410 nm. […]
The luciferase data was generated as relative light units (RLUs) accumulated during a 10 second measurement and automatically transferred to a JMP (SAS Inc.) file where background RLUs were subtracted. […] The mean and standard deviations were determined from a n=8 for each treatment. […]

estrogen receptor = biological target: T2, estrogen receptor (Homo sapiens, UniProt P03372); experiment: In vitro estrogen receptor binding assay (competition with [^3 H]-17-β-estradiol); settings: for IC50: Competition With 17-β-estradiol (0.8 nM), CHO cell cytosol
T2 construct: made in house; host or cells: Chinese Hamster Ovary (CHO) cells, ribosome-free cytosol
T2 sequence (P03372 1-595): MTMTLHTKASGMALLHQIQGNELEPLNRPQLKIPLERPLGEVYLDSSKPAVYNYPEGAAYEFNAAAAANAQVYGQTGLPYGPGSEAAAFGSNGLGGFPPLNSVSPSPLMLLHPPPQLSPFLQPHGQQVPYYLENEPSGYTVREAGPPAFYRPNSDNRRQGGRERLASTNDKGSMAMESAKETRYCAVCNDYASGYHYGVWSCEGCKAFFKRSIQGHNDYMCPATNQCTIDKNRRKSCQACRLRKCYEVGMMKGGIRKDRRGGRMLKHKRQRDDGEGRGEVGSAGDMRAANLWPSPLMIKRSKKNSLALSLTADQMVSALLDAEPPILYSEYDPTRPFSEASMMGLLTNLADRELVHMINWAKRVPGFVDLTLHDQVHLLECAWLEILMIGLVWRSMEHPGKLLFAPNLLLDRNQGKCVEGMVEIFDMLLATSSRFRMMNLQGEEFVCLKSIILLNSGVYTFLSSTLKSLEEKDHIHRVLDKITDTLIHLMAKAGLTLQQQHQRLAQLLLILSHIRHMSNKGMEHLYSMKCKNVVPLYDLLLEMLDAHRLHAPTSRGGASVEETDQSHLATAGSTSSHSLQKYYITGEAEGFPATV
Protocol: Cells were harvested by scraping the surface and then the cell suspension was placed on ice. […] The cytosol was then frozen and stored at -80° C. Protein concentration of the cytosol was estimated using the BCA assay with reference standard protein.
The plate was incubated at room temperature for 2.5 h. […] Samples were counted to 2% or 10 minutes, whichever occurs first. […] Also, wells containing radioactivity but no cytosol were processed with charcoal to estimate unremovable DPM of [^3 H]
For a description of these methods, see Hulme, E. C., ed. 1992. Receptor-Ligand Interactions: A Practical Approach. IRL Press, New York.(see especially chapter 8).

uterus = settings: background statement; cited from earlier work
bone = settings: background statement; cited from earlier work
[1] = Test articles at 10^-6 M, alone, percent of response related to 1 nM 17β-estradiol (control), read-out: % Activation

O=c1c2cccc(O)c2nc(-c2ccc(O)cc2)n1-c1ccc(OCCN2CCCCC2)cc1 [Example 21, 8-Hydroxy-2-(4-hydroxy-phenyl)-3-[4-(2-piperidin-1-yl-ethoxy)-phenyl]-3H-quinazolin-4-one]
activation at 1 µM (Ishikawa cells; [1]): 0% | activation at 1 µM (human estrogen receptor): 6% | IC50 (estrogen receptor): Binding not detected at upper limit of assay

CC/C(=C(\c1ccccc1)c1ccc(OCCN(C)C)cc1)c1ccccc1 [Tamoxifen]
activation at 1 µM (Ishikawa cells): 0% | effect on the uterus (uterus): partial agonist effects in the uterus | effect on bone (bone): increase bone mass

O=c1c2ccc(O)cc2nc(-c2ccc(O)cc2)n1-c1ccc(OCCN2CCCCC2)cc1 [Example 9, 7-Hydroxy-2-(4-hydroxy-phenyl)-3-{4-[2-(piperidin-1-yl)-ethoxy]-phenyl}-3H-quinazolin-4-one]
activation at 1 µM (Ishikawa cells; [1]): 0% | activation at 1 µM (human estrogen receptor): 72% | pIC50 (estrogen receptor; read-out: IC50): 5.19

C[C@]12CC[C@@H]3c4ccc(O)cc4CC[C@H]3[C@@H]1CC[C@@H]2O [17-β-estradiol, reference compound]
activation at 1 µM (Ishikawa cells; [1]): 100%

O=C(c1ccc(OCCN2CCCCC2)cc1)c1c(-c2ccc(O)cc2)sc2cc(O)ccc12 [Raloxifene]
activation at 1 µM (Ishikawa cells; [1]): 5% | effect on the uterus (uterus): stimulate uterine growth in animal models to a lesser degree than Tamoxifen | effect on bone (bone): sparing bone

O=c1c2cccc(O)c2nc(-c2ccc(OCCN3CCCCC3)cc2)n1-c1ccc(O)cc1 [Example 16, 8-Hydroxy-3-(4-hydroxy-phenyl)-2-{4-[2-(piperidin-1-yl)-ethoxy]-phenyl}-3H-quinazolin-4-one]
activation at 1 µM (Ishikawa cells; [1]): 0% | activation at 1 µM (human estrogen receptor): 14% | IC50 (estrogen receptor): Binding not detected at upper limit of assay
